These results are taken from patent US20070098864A1, “PROCESS FOR PREPARING FORMULATIONS OF […] […] SPRAY FREEZING DRYING” (priority 2004, published 2007).

A short description of data set [1]: Stability study of THC (HPLC) in climate chambers. The method, then:
To investigate the degradation of pure THC, 20 mL glass vials were charged with 70 μL of a solution of THC in methanol containing 2.52 mg THC. They were left overnight under a flow of dry nitrogen to allow for methanol evaporation. The resulting thin layers of THC spread over the bottom of the vials (4.5 cm^2). Spray freeze dried and freeze dried material containing THC were weighed in vials. All samples were stored in climate chambers of 20° C./45% RH and 60° C./8% RH. Samples (n=3) were taken at different time intervals and analysed by means of HPLC using the method described by van Drooge et al. (Eur. J. Pharm. Sci. 2004, 21, 511-518). Briefly, samples were extracted with methanol. A Waters 717+ autosampler was used to inject 50 μL of supernatant on a precolumn (HPLC precolum inserts, μBondapak C18 Guardpak) followed by a Chrompack Nucleosil 100 C18 column (4.6×250 mm). Absorbance at 214 nm was measured with a UV detector (Shimadzu SPD-M6A). Chromatograms and peak areas were analysed with an integrator (waters 741 Data Module) and Kromasystem 2000 software. The flow rate of the eluens (methanol/water 92/8 (v/v) plus 5 drops concentrated sulphuric acid per litre eluens) was set at 1.0 mL/min. […] In every series of HPLC-runs some calibration samples were included.

The nature of data set [2]: Modulated differential scanning calorimetry (glass transition temperature) of THC/inulin powders. Type of data set: physicochemical. Conditions: MDSC. The protocol:
Thermal behaviour of the spray freeze dried powders was determined by modulated differential scanning calorimetry (MDSC) on a differential scanning calorimeter (DSC2920, TA Instruments, Gent, Belgium). A modulation amplitude of 0.318° C., a modulation period of 60 seconds and a heating rate of 2° C./min was used. Calibration was performed with indium. Standard aluminium sample pans were used. During measurement, the sample cell was purged with nitrogen at a flow rate of 35 mL/min. Before scanning, the sample pan was heated at 2° C./min to 50° C. to remove all residual moisture. Subsequently, the sample was cooled to −20° C. and then scanned up to 180° C. The glass transition temperature (Tg) was defined as the inflection point of the change in specific heat in the reversing signal.
Background: Differential scanning calorimetry records heat flow against a reference as temperature is scanned.

In the case of `CCCCCc1cc(O)c2c(c1)OC(C)(C)[C@@H]1CCC(C)=C[C@@H]21` [pure THC, Δ^9-tetrahydrocannabinol], the results for the “time to complete degradation” value in data set [1] (exposed to air of 20° C./45% RH) and in data set [1] (storage at 60° C./8% RH) were ≤ 50 days and ≤ 15 days, respectively. The compound further gave a Tg in data set [2] (pure substance) of 9.3 °C. Besides, the “1st Tg (° C.)” value in data set [2] (spray freeze dried, Tg of THC) was determined as 9.3 ± 1.0 °C.
